3 molecules from ChEMBL document CHEMBL1201862, “PubChem BioAssay data set” (2004) can be followed below.

In one assay the target is Cysteine protease ATG4B (Homo sapiens, UniProt Q9Y4P1). Type of assay: functional.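 Note: Fluorescence-based dose-response confirmation assay measuring inhibition of ATG4B activity.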
Assay [1] in a line: Shn3 3'UTR reporter inhibitors, dose response, cell-based, Clone20 osteoblasts, firefly luciferase, cherry-picked (AID 624132).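 Note: firefly luciferase luminescence from reporter carrying the Shn3 3'UTR in osteoblasts.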 Type of assay: functional.
A short description of assay [2]: MDA-MB-231 cell growth inhibition, dose response, cytotoxicity control for RAD54 inhibitor project, CellTiter-Glo luminescence, cherry-pick (AID 651692). The class given is functional, cell-based. In general terms: Cellular ATP, detected with luciferase, serves as a proxy for viable cell number.
In assay [3] the target is 1-phosphatidylinositol 4,5-bisphosphate phosphodiesterase gamma-1 (Homo sapiens, UniProt P19174). Description: Counterscreen for inhibitors of phospholipase C isozymes (PLC-B3): Fluorescence-based biochemical high throughput dose response assay to identify inhibitors of phospholipase C isozymes (PLC-gamma1). On the technique in general: Counterscreens check selectivity or assay interference.

A further assay addresses T1, Caspase-3 (Homo sapiens, UniProt P42574).
T1 sequence (P42574 whole entry): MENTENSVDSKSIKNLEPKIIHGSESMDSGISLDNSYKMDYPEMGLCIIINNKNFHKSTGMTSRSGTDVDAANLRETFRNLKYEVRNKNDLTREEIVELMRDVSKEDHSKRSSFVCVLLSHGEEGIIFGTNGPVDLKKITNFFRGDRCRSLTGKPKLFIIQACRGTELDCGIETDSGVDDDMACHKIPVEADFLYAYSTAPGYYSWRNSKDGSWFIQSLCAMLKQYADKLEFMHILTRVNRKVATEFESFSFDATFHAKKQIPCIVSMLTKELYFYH
The class given is functional.

The target in assay [4] is T2, Apoptotic protease-activating factor 1 (Homo sapiens, UniProt O14727).
T2 sequence (O14727 whole entry): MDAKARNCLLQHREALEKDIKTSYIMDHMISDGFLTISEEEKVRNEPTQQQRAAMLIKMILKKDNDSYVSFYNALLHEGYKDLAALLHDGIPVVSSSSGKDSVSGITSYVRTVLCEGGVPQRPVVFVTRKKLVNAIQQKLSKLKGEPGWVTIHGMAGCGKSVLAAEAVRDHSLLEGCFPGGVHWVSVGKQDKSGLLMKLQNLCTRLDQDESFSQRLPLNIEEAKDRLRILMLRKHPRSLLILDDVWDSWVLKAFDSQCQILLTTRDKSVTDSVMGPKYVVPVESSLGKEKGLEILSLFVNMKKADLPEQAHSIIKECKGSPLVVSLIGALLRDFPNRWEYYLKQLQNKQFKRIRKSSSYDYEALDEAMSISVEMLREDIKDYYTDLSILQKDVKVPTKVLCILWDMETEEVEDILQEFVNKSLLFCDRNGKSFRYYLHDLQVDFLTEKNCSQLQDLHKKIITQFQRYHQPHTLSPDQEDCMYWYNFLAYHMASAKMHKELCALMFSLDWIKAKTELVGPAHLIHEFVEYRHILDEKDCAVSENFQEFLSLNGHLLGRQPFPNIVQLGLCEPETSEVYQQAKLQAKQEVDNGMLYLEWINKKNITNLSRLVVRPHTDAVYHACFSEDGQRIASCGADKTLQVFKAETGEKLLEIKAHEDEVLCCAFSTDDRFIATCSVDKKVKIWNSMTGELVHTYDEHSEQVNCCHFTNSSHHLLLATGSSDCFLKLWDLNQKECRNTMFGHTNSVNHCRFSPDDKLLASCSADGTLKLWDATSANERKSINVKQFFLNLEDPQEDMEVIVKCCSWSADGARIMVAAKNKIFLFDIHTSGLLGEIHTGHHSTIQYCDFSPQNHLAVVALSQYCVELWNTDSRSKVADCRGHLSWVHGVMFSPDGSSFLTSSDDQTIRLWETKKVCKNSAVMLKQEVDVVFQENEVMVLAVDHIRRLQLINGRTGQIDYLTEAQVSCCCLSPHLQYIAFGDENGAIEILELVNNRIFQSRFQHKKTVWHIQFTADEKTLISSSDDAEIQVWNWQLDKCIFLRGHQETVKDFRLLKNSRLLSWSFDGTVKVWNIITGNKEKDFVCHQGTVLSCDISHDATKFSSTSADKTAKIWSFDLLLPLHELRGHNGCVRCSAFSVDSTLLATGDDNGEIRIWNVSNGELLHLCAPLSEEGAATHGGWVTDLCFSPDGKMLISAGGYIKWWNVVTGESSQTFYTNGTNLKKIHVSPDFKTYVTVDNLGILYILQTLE
Type of assay: functional.

For assay [5], the target named is Serine/threonine-protein kinase D2 (Homo sapiens, UniProt Q9BZL6). Type of assay: functional.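 Note: measured against PRKD2 as one member of a kinome-wide kinase profiling panel.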
Assay [6] deals with Calcium/calmodulin-dependent protein kinase type II subunit gamma (Homo sapiens, UniProt Q13555). Type of assay: functional.
Assay [7] concerns the target T3, Testis-specific serine/threonine-protein kinase 2 (Homo sapiens, UniProt Q96PF2).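 Note: part of the Navigating the Kinome panel, target entry STK22B.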
T3 sequence (Q96PF2 whole entry): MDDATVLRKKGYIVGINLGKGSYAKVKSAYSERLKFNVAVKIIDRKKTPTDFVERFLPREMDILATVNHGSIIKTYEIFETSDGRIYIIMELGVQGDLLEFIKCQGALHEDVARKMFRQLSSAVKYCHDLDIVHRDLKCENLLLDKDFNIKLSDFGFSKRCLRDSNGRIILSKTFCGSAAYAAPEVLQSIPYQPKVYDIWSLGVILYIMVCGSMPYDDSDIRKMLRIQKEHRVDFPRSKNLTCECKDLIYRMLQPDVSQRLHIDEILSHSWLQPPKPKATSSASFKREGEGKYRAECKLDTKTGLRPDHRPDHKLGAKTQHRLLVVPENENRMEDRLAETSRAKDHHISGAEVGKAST
Type of assay: functional.

The target in assay [8] is MAP kinase-activated protein kinase 5 (Homo sapiens, UniProt Q8IW41). The class given is functional.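 Note: measured as one member of a kinome panel.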
The target of assay [9] is Homeodomain-interacting protein kinase 2 (Homo sapiens, UniProt Q9H2X6). The class given is functional.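 Note: measured within a kinome-wide kinase profiling panel, HIPK2 being one panel member.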
Assay [10] has as its target MAP kinase-activated protein kinase 3 (Homo sapiens, UniProt Q16644). Type of assay: functional.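 Note: value comes from a kinome-wide profiling panel in which MAPKAPK3 is one of the panel members.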
The target of assay [11] is Casein kinase I isoform delta (Homo sapiens, UniProt P48730). Type of assay: functional.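 Note: measured as one member (CSNK1D) of a kinome panel.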
In assay [12] the target is BDNF/NT-3 growth factors receptor (Homo sapiens, UniProt Q16620). Type of assay: functional.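 Note: NTRK2 measured as one member of a broad kinome-wide kinase profiling panel.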
Assay [13] deals with Dual specificity protein kinase CLK4 (Homo sapiens, UniProt Q9HAZ1). The class given is functional.
In assay [14] the target is Inhibitor of nuclear factor kappa-B kinase subunit beta (Homo sapiens, UniProt O14920). The class given is functional.
Assay [15] addresses Serine/threonine-protein kinase 3 (Homo sapiens, UniProt Q13188). Type of assay: functional.

Activity calls are given as the source filed them.

BDNF/NT-3 growth factors receptor, sequence (Q16620 whole entry): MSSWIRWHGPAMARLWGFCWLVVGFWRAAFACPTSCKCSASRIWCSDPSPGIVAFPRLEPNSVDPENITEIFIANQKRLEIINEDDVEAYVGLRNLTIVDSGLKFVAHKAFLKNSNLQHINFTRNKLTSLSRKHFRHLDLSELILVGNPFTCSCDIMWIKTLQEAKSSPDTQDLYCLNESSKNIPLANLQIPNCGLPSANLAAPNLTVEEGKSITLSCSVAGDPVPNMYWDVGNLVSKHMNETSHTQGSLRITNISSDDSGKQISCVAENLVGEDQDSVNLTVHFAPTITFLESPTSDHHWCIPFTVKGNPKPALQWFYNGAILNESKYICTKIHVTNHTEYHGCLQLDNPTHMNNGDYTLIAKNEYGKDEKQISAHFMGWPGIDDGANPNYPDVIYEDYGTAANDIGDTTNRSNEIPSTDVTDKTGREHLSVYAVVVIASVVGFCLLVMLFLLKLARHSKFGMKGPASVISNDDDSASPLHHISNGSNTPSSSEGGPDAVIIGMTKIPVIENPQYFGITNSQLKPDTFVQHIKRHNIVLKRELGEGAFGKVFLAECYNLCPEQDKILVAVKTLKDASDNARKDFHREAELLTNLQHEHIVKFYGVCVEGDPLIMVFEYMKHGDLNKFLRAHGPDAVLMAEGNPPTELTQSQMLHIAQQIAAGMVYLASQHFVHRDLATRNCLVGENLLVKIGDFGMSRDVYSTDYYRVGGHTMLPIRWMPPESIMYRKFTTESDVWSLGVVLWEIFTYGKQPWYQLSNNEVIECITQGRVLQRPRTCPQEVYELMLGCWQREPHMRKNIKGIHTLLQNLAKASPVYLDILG
Inhibitor of nuclear factor kappa-B kinase subunit beta, sequence (O14920 whole entry): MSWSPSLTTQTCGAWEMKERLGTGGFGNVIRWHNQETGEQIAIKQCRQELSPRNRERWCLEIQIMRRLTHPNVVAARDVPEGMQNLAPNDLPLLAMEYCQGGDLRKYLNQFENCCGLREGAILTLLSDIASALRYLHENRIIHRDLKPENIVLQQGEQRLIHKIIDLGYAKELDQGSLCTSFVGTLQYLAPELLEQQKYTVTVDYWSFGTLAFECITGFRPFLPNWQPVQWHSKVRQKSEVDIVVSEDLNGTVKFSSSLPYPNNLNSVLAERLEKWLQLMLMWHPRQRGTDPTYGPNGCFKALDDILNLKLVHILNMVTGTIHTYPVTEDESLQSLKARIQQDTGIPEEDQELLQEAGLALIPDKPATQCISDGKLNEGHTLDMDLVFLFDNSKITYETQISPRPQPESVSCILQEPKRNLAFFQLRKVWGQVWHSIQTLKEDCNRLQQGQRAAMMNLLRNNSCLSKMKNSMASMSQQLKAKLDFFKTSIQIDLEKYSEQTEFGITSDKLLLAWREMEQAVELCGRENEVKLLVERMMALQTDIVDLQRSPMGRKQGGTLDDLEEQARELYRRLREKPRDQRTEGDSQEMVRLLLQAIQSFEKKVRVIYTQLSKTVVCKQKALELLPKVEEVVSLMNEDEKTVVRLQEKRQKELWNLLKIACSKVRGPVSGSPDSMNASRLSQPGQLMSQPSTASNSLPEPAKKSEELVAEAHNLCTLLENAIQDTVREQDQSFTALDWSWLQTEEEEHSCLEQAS
MAP kinase-activated protein kinase 5, sequence (Q8IW41 whole entry): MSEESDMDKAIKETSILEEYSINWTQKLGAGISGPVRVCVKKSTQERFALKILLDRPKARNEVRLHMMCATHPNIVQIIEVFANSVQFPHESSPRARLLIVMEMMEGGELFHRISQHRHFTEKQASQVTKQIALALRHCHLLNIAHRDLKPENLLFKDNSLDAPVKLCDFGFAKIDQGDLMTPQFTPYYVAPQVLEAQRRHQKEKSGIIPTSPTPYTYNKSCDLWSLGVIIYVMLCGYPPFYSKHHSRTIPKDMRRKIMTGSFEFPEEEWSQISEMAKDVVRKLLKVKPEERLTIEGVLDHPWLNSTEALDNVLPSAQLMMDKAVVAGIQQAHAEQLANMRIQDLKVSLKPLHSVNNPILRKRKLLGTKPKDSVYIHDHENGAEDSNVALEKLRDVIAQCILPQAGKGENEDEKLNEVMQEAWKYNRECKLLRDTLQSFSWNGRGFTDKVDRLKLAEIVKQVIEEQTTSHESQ
Serine/threonine-protein kinase D2, sequence (Q9BZL6 whole entry): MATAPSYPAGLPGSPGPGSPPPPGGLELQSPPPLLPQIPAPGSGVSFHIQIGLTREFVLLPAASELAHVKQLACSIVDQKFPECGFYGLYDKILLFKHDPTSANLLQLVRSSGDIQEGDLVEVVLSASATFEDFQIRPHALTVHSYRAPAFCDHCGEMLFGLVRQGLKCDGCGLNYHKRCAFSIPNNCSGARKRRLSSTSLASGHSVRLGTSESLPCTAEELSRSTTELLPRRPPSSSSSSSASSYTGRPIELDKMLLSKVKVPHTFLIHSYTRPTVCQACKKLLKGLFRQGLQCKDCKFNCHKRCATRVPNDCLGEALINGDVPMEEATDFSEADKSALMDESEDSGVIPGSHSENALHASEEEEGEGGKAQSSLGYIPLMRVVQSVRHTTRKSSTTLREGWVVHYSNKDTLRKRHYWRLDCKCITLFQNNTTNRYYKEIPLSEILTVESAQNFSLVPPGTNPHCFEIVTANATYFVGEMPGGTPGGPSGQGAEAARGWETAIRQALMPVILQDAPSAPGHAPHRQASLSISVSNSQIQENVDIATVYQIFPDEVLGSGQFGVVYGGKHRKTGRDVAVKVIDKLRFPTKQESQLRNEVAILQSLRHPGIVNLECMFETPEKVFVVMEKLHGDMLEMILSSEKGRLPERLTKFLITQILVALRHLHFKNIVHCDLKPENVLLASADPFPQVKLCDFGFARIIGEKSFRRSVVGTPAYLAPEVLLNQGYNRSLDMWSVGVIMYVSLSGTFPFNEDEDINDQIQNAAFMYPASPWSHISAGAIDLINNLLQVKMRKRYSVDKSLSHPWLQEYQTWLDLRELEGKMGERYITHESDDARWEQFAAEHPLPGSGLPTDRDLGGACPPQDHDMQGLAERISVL
1-phosphatidylinositol 4,5-bisphosphate phosphodiesterase gamma-1, sequence (P19174 whole entry): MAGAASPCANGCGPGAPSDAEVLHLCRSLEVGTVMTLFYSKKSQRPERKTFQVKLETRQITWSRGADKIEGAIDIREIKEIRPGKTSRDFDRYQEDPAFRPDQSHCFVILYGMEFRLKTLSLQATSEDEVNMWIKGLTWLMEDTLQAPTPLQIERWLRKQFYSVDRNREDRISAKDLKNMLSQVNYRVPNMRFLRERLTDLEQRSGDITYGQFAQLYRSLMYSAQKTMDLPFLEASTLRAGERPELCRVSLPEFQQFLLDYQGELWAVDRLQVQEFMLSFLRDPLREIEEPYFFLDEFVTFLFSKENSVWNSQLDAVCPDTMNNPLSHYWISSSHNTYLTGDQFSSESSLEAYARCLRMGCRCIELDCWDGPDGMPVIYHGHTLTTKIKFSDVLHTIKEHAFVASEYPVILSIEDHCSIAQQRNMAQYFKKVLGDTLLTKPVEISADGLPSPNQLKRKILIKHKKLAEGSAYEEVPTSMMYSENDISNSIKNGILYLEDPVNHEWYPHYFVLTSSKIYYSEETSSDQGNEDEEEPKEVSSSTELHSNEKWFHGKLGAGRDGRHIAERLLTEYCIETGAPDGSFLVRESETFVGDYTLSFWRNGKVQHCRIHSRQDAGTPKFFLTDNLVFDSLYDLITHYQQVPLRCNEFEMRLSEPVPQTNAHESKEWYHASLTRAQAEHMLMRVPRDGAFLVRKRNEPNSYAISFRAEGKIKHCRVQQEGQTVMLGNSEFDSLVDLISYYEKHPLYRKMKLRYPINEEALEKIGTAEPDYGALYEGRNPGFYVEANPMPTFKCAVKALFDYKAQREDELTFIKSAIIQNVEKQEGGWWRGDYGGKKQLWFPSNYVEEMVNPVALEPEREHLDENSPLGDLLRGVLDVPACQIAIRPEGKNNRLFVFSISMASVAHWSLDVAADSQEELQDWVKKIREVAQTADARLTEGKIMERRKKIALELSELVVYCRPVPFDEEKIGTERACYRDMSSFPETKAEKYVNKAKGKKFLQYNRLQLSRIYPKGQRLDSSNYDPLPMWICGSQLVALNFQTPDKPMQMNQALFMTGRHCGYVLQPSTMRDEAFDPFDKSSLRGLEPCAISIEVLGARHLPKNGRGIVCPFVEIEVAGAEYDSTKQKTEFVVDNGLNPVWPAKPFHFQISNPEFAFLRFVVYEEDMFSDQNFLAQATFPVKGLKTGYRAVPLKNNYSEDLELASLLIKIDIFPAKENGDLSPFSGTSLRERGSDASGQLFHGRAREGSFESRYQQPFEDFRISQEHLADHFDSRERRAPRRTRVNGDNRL
Casein kinase I isoform delta, sequence (P48730 whole entry, canonical isoform): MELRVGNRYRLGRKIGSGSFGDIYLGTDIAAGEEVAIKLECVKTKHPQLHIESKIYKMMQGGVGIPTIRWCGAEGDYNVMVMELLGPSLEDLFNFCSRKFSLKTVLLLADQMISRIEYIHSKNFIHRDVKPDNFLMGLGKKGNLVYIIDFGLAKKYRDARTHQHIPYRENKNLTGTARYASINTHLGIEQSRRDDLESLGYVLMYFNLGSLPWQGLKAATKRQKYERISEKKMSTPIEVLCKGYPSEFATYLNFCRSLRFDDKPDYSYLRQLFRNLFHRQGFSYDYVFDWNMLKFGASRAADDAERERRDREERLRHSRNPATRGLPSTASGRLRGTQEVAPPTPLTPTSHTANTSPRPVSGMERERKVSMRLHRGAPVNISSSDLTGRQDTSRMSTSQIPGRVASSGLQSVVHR
Cysteine protease ATG4B, sequence (Q9Y4P1 whole entry): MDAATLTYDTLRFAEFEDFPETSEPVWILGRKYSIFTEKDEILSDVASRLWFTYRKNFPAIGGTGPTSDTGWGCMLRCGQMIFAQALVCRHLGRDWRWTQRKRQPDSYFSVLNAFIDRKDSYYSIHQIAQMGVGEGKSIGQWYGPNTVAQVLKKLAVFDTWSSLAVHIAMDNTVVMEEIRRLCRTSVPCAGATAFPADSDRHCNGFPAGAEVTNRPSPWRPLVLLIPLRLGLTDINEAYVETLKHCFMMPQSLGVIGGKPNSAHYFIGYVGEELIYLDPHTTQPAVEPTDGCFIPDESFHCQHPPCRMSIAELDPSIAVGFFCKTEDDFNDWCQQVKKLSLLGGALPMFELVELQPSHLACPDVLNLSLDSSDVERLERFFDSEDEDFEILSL

For the molecule `CCCc1nc2c(=O)n(C)c(=O)nc-2n(C)n1`, the values for the IC50 (on Cysteine protease ATG4B; in [3]) were 2.84 µM (active) and > 1.51 µM (active), respectively. For the same molecule, the AC50 (as a rule, the midpoint of the concentration-response curve, whichever way the signal moves) in [1] is 2.17 µM (active); in assay [2] it was 2.71 µM (active).
Consider `CC(=O)c1ccc(NC2=C(N3CCOCC3)C(=O)c3ccccc3C2=O)cc1`, for which the figures for the IC50 (at Caspase-3; in assay [4]) were 30 µM (active) and 28.7 µM (active), respectively.
For `COc1cc2ncn(-c3cc(OCc4ccccc4C(F)(F)F)c(C(N)=O)s3)c2cc1OC` [GW843682X], the Ki (usually a dissociation constant, usually derived from enzyme kinetics or from competition with a known ligand) in assay [5] was > 10 µM (inactive); in assay [6], > 6.31 µM (inactive); in assay [7] it was 0.0631 µM (active); in [8], 0.0631 µM (active); in [9], > 3.16 µM (inactive); in assay [10], > 10 µM (inactive). In addition, the Ki in assay [11] was > 7.94 µM (inactive); in assay [12], > 5.01 µM (inactive); in assay [13], 0.398 µM (active); in assay [14], > 3.16 µM (inactive); in assay [15] it was 0.2 µM (active).
